Legend:
[1] = tested on: human T cells; test: Human T cell proliferation assay (PBMCs, anti-CD3, CellTiter-Glo); format: cell-based
Procedure: Cyclosporine A 1 mg/mL stock (CsA—Sigma) was dissolved in DMSO, Rapamycin 5 mg/mL stock (LC Labs) was dissolved in ethanol.
Under sterile conditions, a 96 well flat bottom plate with white opaque walls (Perkin Elmer) was coated with 10 μg per well of purified human anti-CD3 antibody (clone OKT-3; Biolegend) in a volume of 50 μL per well in sterile PBS. The plate was covered in parafilm and incubated overnight at 4° C. Just prior to addition of Peripheral Blood Mononuclear Cells (PBMCs), the antibody solution was removed and discarded using a multichannel pipette. Wells were washed by adding 200 μL sterile PBS to each well and incubating for 2 min. PBS wash solution was removed and discarded following incubation. The wash step was repeated once, for a total of two PBS washes.
20 mL of blood from a consenting healthy volunteer was collected into lithium heparin vacuette containers (Greiner Bio-One). Under sterile conditions, blood from each container was pooled into a single tube and mixed thoroughly with 20 mL FACS buffer (2% FBS in 1×PBS). 15 mL Ficoll-Paque (GE Healthcare) was added to two 50 mL Falcon tubes, before 20 mL of whole blood/FACS buffer mixture was carefully and slowly dispensed on top of the Ficoll layer. Tubes were centrifuged at 800 g for 20 min at room temperature with the brake off. After centrifugation, the resulting PBMC layer between the plasma and Ficoll layers was carefully removed and transferred to a new 50 mL Falcon tube. Tubes were topped up to 45 mL with FACS buffer, then centrifuged at 500 g for 15 min. Supernatant was carefully removed without disturbing cell pellet, then PBMCs from both tubes were pooled. 30 mL of pre-warmed complete RPMI media [RPMI 1640 (Gibco), 10% heat inactivated FBS (Gibco), 1× Penicillin/Streptomycin/L-Glutamine (Gibco), 100 μM 2-Mercaptoethanol (Sigma)] was added to PBMCs, before centrifugation at 500 g for 15 min at room temperature. Supernatant was removed carefully without disturbing cell pellet. PBMCs were resuspended in 1 mL complete RPMI media.
PBMCs were counted manually using a haemocytometer and cell concentration was adjusted to 1.5×10^6 cells/mL with complete RPMI media. 50 μL of cell suspension was added to appropriate wells of the 96 well flat bottom plate with white opaque walls pre-coated in human anti-CD3. The final number of cells per well was 7.5×10^4.
Cells were incubated in a humidified incubator at 37° C. with 5% CO2 for 1 hour before Compound 1 (or vehicle only) was diluted in complete RPMI medium and added to the appropriate wells at the concentration required. The final volume in all wells was 100 μL. Cells were incubated for 5 days in a humidified incubator at 37° C. with 5% CO2.
CellTiter-Glo Luminescent Cell Viability Assay (Promega) was performed to determine the level of metabolically active cells per well based on ATP quantification. CellTiter-Glo Buffer and lyophilised CellTiter-Glo Substrate were equilibrated to room temperature. CellTiter-Glo Substrate was reconstituted with 10 mL CellTiter-Glo Buffer and gently vortexed for 1 minute to create the CellTiter-Glo Reagent. The 96 well plate containing PBMCs was equilibrated to room temperature for 30 min. Once at room temperature, 100 μL of CellTiter-Glo Reagent was dispensed using a multichannel pipette into each well containing 100 μL cells and media. The plate was mixed for 2 min at room temperature on an orbital shaker to induce cell lysis. The plate was then incubated for 10 min at room temperature in the dark to stabilize the luminescence signal. Luminescence signal was recorded using a CLARIOstar Plus plate reader (BMG Labtech).
PBMCs were stimulated with human anti-CD3 antibody and T cells were allowed to proliferate at 37° C. with 5% CO2 in a humidified incubator for 5 days. Proliferation/viability was assessed via a CellTiter-Glo Luminescent Cell Viability Assay and luminescence was read using a CLARIOstar Plus plate reader. […]

[2] = Single dose pharmacokinetics after topical application to mouse ear; format: in vivo; conditions: single topical 10 μL of 3% solution in propylene glycol to ear, LOQ 3.5 ng/mL
Procedure: The single dose pharmacokinetics of Compound 1 (Cmpd 1) was assessed by topical administration of the compound as a formulation in propylene glycol (3% concentration) applied once per day (QD) to one ear only of C57BL/6 female mice, 8 weeks of age (N=2 or 3 per timepoint; samples taken 1, 6 and 24 h post administration of Compound 1).
Compound Application: Compound 1 (10 μL of a 3% solution in propylene glycol) was applied to mouse ears using a silicone brush. The brush was cleaned with distilled water and ethanol between applications. The vehicle solution was 100% propylene glycol.
Blood processing: Cryovials were prepared containing 10 μL 0.5 M EDTA and labelled appropriately. Cardiac bleed was performed on mice and blood transferred to an Eppendorf tube. Blood (110 μL) was transferred immediately to a cryovial containing EDTA and well mixed to prevent clotting. The cryovial was placed on dry ice and transferred to a −80° C. freezer.
Ear processing: Before taking ears for pharmacokinetics the skin was cleaned with distilled water and dried with cotton balls/swab before doing 2 tape strips (one piece of tape per strip). The whole ear was removed from the mouse. The weight of the whole ear was recorded and placed into an appropriate cryovial which was placed on dry ice then transferred to a −80° C. freezer.
Sample processing: A LC/MS/MS based bioanalytical method was developed for the detection and quantification of Compound 1 in mouse blood and ears. Calibration standards and quality control samples were prepared by adding 2.5 μL of stock solutions of test compound of different concentrations into 25 μL of naïve mouse blood or ear homogenates. Control samples were prepared by spiking 2.5 μL, of water or acetonitrile into 25 μL of naïve mouse blood or ear homogenates. The blood or ear samples were transferred into polypropylene Eppendorf tubes. […] 20-40 μL of the supernatant was analysed by LCMS/MS, using the same instrument, column, Mobile phase A, Mobile phase B, gradient and other parameters as outlined above for the tumour sample processing.

[3] = tested on: skin tumours; conditions: 104 weeks, doses up to 260× of the recommended human dose (Protopic prescribing information); cited from earlier work

Structure (SMILES)	rescue of T cell proliferation in the presence of rapamycin ([1]; 0.3 μM, 1 μM and 3 μM Compound 1 with 1 ng/mL rapamycin, 5 days)	rescue of T cell proliferation in the presence of cyclosporine A ([1]; 0.3 μM, 1 μM and 3 μM Compound 1 with 50 ng/mL cyclosporine A, 5 days)	rescue of T cell proliferation in the presence of tacrolimus ([1]; 1 μM and 3 μM Compound 1 with 0.6 ng/mL tacrolimus, 5 days)	T cell proliferation/viability with Compound 1 alone ([1]; no tacrolimus, 5 days)	Concentration in blood ([2]; 1 h)	Concentration in blood ([2]; 6 h)	Concentration in blood ([2]; 24 h)	T cell proliferation compared to the vehicle control ([1]; 0.6 ng/mL tacrolimus, anti-CD3, 5 days)	association of skin tumours with daily topical doses [3]
CC[C@@H]1/C=C(\C)[C@@H](O)[C@H](C)C[C@H](OC)[C@H]2O[C@@](O)(C(=O)C(=O)N3CCCC[C@H]3C(=O)O[C@H](/C(C)=C/[C@@H]3CC[C@@H](O)[C@H](OC)C3)[C@H](C)[C@@H](O)CC1=O)[C@H](C)C[C@@H]2OC [Compound 1, 17-Ethyl-1,14,20-trihydroxy-12-[2′-(4″-hydroxy-3″-methoxycyclohexyl)-1′-methylvinyl]-23,25-dimethoxy-13,19,21,27-tetramethyl-11,28-dioxa-4-azatricyclo-[22.3.1.0^4,9]octacos-18-ene-2,3,10,16-tetraone]	significantly rescued	unable to rescue	dose dependently and significantly rescued	did not significantly alter	BLQ	BLQ	BLQ	–	–
C=CC[C@@H]1/C=C(\C)C[C@H](C)C[C@H](OC)[C@H]2O[C@@](O)(C(=O)C(=O)N3CCCC[C@H]3C(=O)O[C@H](/C(C)=C/[C@@H]3CC[C@@H](O)[C@H](OC)C3)[C@H](C)[C@@H](O)CC1=O)[C@H](C)C[C@@H]2OC [tacrolimus, reference compound]	–	–	–	–	–	–	–	inhibited	no association

From patent US20230218589A1, “COMPOUND FOR PREVENTION OR TREATMENT OF A SKIN CANCER OR SKIN PRECANCER” (UNIQUEST PTY LTD, priority 2020, published 2023)
